This is an account of results in publication PMC6058520 (Drug Delivery, 2018).

“And” between values parts separate entries of the source, which are not always exact repeats. Equal values may be shown once. Square brackets hold non-standard residues; d marks the D form. Peptide text beside a SMILES is read from it.

The subject of series [1] is rats with alloxan-induced diabetes. The series can be described thus: Pharmacodynamics (blood glucose) of insulin/TCTP-PTD analog mixtures in diabetic rats. Format: in vivo, rat. Particulars: area above blood glucose curve, mean ± SEM (n = 6–8). Here is the method: After 5 days, rats with fasting blood glucose levels in the range of 230-300 mg/dL were selected for the pharmacodynamic studies. […] Then, they were anesthetized by intraperitoneal injections of sodium pentobarbital (60 mg/kg). […] Blood samples were collected from the tip of the rat tail, and blood glucose levels were directly measured using an Accu-Chek glucose meter (Roche Diagnostics, Seoul, Korea). […] The area above the blood glucose curve (AAC) was calculated according to the trapezoid rule. The F% was calculated using the following equation: F%=([…])×100%

Series [2] is described as follows: Pharmacokinetics of insulin/TCTP-PTD analog mixtures in normal rats (plasma insulin, ELISA). It counts as in vivo, rat. The following applies: for AUC / Cmax / BA (relative bioavailability compared to s.c.) / Tmax: mean ± SEM (n = 5–7); for Cmax / Tmax: ELISA. Here is the method:
Rats were fasted for 16 h with access to water, anesthetized by intraperitoneal injection of sodium pentobarbital (60 mg/kg), and placed in the supine position. […] Blood samples (100 µL) were collected from the rat tail 5, 10, 20, 30, 60, 90, 120 and 180 min after dosing and centrifuged at 5000 × g for 25 min to obtain plasma. […] Relative BA was calculated using the following formula: BA(%)=(AUCnasal×Doses.c.)/(AUCs.c×Dosenasal)×100%
A general note: ELISA stands for enzyme-linked immunosorbent assay.

For series [3] the following is noted: D-form compared with L-TCTP-PTD 13; ref Bae et al., 2016; cited from earlier work. The source says:
Therefore, the D-TCTP-PTD analogs could negatively affect insulin delivery through the nasal mucosa.

For series [4], the system named is BEAS-2B human bronchial epithelial cells. The experiment in a line: Cellular uptake of FITC-labeled peptides, flow cytometry. It counts as cell-based. The following applies: FITC-labeled peptides 5 µM in BEGM, BEAS-2B cells, 30 min, 37 °C, p < .05. Here is the method: Cellular uptake assays were carried out to assess the membrane permeability of the new peptides, as previously described (Bae et al., [2016]). Briefly, BEAS-2B human bronchial epithelial cells (American Type Culture Collection [ATCC], Manassas, VA) were maintained in bronchial epithelial growth medium (BEGM; Lonza, Walkersville, MD) and 2 × 10^5 cells/well were seeded in 12-well plates. After 24 h, the cells were washed twice with 1 mL phosphate-buffered saline (PBS) and incubated with FITC-labeled peptides (5 µM) in BEGM for 30 min at 37 °C. The cells were then washed three times with ice-cold PBS to remove cell surface-bound peptides. After trypsinization, the cells were collected by centrifugation (1000 × g for 5 min), washed and finally resuspended in 1 mL ice-cold PBS. The internalized FITC was measured using fluorescence-activated cell sorting on a FACSCalibur flow cytometer (Becton Dickinson, San Jose, CA, USA) at emission and excitation wavelengths of 510 and 530 nm, respectively. Assays were performed in triplicate and repeated at least three times. Flow cytometric analyses were accomplished using WinMDI v.2.8 software.

The conditions of series [5]: ref Bae & Lee, 2013; cited from earlier work. The source says:
We previously reported that the human translationally controlled tumor protein (TCTP) contains a PTD at its N-terminus (TCTP-PTD) with the amino acid sequence […] al., [2011a]). To improve the penetration of peptides through the cell membrane, we designed variant peptides modified from TCTP-PTD. […] Therefore, the D-TCTP-PTD analogs could negatively affect insulin delivery through the nasal mucosa.

The mark [6] stands for this setting: insulin 1 IU/kg intranasal plus 0.25 mM PTD.
[7] abbreviates: plasma insulin AUC0-180 min, insulin 1 IU/kg intranasal plus 0.25 mM PTD.
[8] abbreviates: plasma insulin, insulin 1 IU/kg intranasal plus 0.25 mM PTD.
Where [9] appears, read: insulin 1 IU/kg intranasal plus 0.1 mM PTD.
The mark [10] stands for this setting: plasma insulin AUC0-180 min, insulin 1 IU/kg intranasal plus 0.1 mM PTD.
Where [11] appears, read: plasma insulin, insulin 1 IU/kg intranasal plus 0.1 mM PTD.

For “Insulin: Human recombinant insulin (27.5 IU/mg), Sigma-Aldrich”, the “AAC0–240 min” value was determined as 721.0 ± 478.2 % glucose/min in series [1] (insulin alone, intranasal, 2 IU/kg) and 11354.3 ± 507.8 % glucose/min in series [1] (insulin s.c., 1 IU/kg). In addition, the AUC is on record as 2356.4 ± 106.2 μU/mL·min in series [2] (AUC0-180 min, insulin s.c., 0.25 IU/kg) and 180.5 ± 37.6 μU/mL·min in series [2] (AUC0-180 min, trapezoid rule, insulin alone, intranasal, 5 IU/kg). In addition, the “plasma insulin after intranasal insulin alone (in words)” value in series [2] (insulin 1 IU/kg intranasal, alone) is “scarcely detectable”. The Cmax in series [2] (insulin s.c., 0.25 IU/kg) stood at 40.9 ± 0.9 μU/mL.
In the case of `CC[C@@H](C)[C@@H](NC(=O)[C@@H](CC(C)C)NC(=O)[C@@H](C)NC(=O)[C@@H](CCCNC(=N)N)NC(=O)[C@@H](Cc1ccccc1)NC(=O)[C@H](NC(=O)[C@H](NC(=O)[C@@H](CCSC)NC(C)=O)[C@H](C)CC)[C@H](C)CC)C(=O)N[C@H](CO)C(=O)N[C@H](Cc1c[nH]cn1)C(=O)N[C@H](CCCCN)C(=O)N[C@H](CCCCN)C(N)=O` [D-TCTP-PTD 13] (Ac-[dM][dI][dI][dF][dR][dA][dL][dI][dS][dH][dK][dK]-NH2), the “BA (relative bioavailability compared to s.c.)” value in series [2] (setting [6]) is 6.8% and 6.8 ± 2.0%. Besides, the AUC in series [2] (setting [7]) was found to be 645.5 ± 191.2 μU/mL·min. Also, in series [2] (setting [8]), the Cmax was determined as 13.8 ± 4.2 μU/mL and the Tmax is 14.0 ± 2.4 min. Besides, the “antigen (ovalbumin) carrier potency through nasal mucosa (in words)” value in series [3] is “more potent antigen carrier”.
For `CC[C@H](C)[C@H](NC(=O)[C@H](CC(C)C)NC(=O)[C@H](CC(C)C)NC(=O)[C@H](CCCNC(=N)N)NC(=O)[C@H](Cc1ccccc1)NC(=O)[C@@H](NC(=O)[C@@H](NC(=O)[C@H](CCSC)NC(C)=O)[C@@H](C)CC)[C@@H](C)CC)C(=O)N[C@@H](CO)C(=O)N[C@@H](Cc1c[nH]cn1)C(=O)N[C@@H](CCCCN)C(=O)N[C@@H](CCCCN)C(N)=O` [L-TCTP-PTD 13M1] (Ac-MIIFRLLISHKK-NH2), the “BA (relative bioavailability compared to s.c.)” value was found to be 20.9 ± 1.4% in series [2] (setting [9]) and 10.1 ± 2.4% in series [2] (setting [6]). Moreover, the figures for the AUC in series [2] (setting [10]) and in series [2] (setting [7]) were 1966.3 ± 130.5 μU/mL·min and 951.7 ± 225.9 μU/mL·min, respectively. Further, the Cmax in series [2] (setting [11]) came to 47.1 ± 3.1 μU/mL; in series [2] (setting [8]), 15.0 ± 3.3 μU/mL. The Tmax is 10.0 ± 0.0 min in series [2] (setting [11]) and 13.3 ± 2.1 min in series [2] (setting [8]). For the same compound, the “cellular uptake capacity compared with L-TCTP-PTD 13 (in words)” value in series [4] is “lower”.
Turning to `CC[C@H](C)[C@H](NC(=O)[C@H](CC(C)C)NC(=O)[C@H](C)NC(=O)[C@H](CCCNC(=N)N)NC(=O)[C@H](Cc1ccccc1)NC(=O)[C@@H](NC(=O)[C@@H](NC(=O)[C@H](CCSC)NC(C)=O)[C@@H](C)CC)[C@@H](C)CC)C(=O)N[C@@H](CO)C(=O)N[C@@H](Cc1c[nH]cn1)C(=O)N[C@@H](CCCCN)C(=O)N[C@@H](CCCCN)C(N)=O` [L-TCTP-PTD 13] (Ac-MIIFRALISHKK-NH2), the “BA (relative bioavailability compared to s.c.)” value was 9.0 ± 1.4% in series [2] (setting [9]); 22.1% and 22.1 ± 2.5% in series [2] (setting [6]). Further, the AUC was determined as 847.1 ± 132.9 μU/mL·min in series [2] (setting [10]) and 2081.7 ± 238.6 μU/mL·min in series [2] (setting [7]). Moreover, the Cmax was found to be 26.4 ± 7.8 μU/mL in series [2] (setting [11]) and 53.4 ± 6.7 μU/mL in series [2] (setting [8]). Also, the Tmax in series [2] (setting [11]) was 12.0 ± 2.0 min; in series [2] (setting [8]), 10.0 ± 0.0 min. The “nasal absorption of insulin compared to insulin alone (in words)” value in series [5] is “enhanced nasal absorption”.
